These results are taken from ChEMBL document CHEMBL1201862, “PubChem BioAssay data set” (2004).

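Interpolation was linear, between the two tested concentrations surrounding the appropriate level; five concentrations were tested over 48 hours in 96-well plates. Here, GI50 denotes the concentration required for 50% inhibition of growth.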 Active and inactive are the calls of the source. No stated cut-off is given here; in the data, active = GI50 up to about 1.1 µM and inactive = higher. Some results are limits rather than exact numbers.

Test systems include IGROV-1; RPMI-8226; NCI/ADR-RES; TK-10; DU-145; MOLT-4; COLO 205; LOX IMVI; SW-620; NCI-H460; U-251; NCI-H522; OVCAR-8; M14; KM12; SN12C; SF-268; HCT-116; SK-MEL-28; OVCAR-4.
Holding throughout (experiment): NCI anticancer screen, dose series, 48 h

Regarding `Nc1n[n+]2cc(-c3ccccc3)n(CC(=O)c3ccccc3)c2s1`, the GI50 in the experiment with IGROV-1 was 70.8 µM (inactive); in the experiment on RPMI-8226, 17.1 µM (inactive); in the experiment on NCI/ADR-RES, > 100 µM (inactive); in the experiment on TK-10, 23.6 µM (inactive); in the experiment with DU-145 it was 50.9 µM (inactive); in the experiment on MOLT-4, 20.9 µM (inactive). The GI50 in the experiment on COLO 205 was 15.3 µM (inactive); with LOX IMVI, 17.9 µM (inactive); in the experiment on SW-620, 23.2 µM (inactive); in the experiment on NCI-H460 it was > 100 µM (inactive); in the experiment with U-251 it was 16.1 µM (inactive); with NCI-H522 it was 13.3 µM (inactive). The GI50 was 52 µM (inactive) in the experiment with OVCAR-8; 21.3 µM (inactive) with M14; 19.8 µM (inactive) in the experiment on KM12; 42.6 µM (inactive) with SN12C; 20.3 µM (inactive) in the experiment on SF-268; 16.7 µM (inactive) in the experiment on HCT-116.

Take `CCOC(=O)c1cc([N+](=O)[O-])c(Sc2ncnc3nc[nH]c23)c([N+](=O)[O-])c1`: the GI50 in the experiment on IGROV-1 was 1.26 µM (inactive); in the experiment with RPMI-8226, 0.865 µM (active); in the experiment on NCI/ADR-RES it was 2.82 µM (inactive); in the experiment with TK-10 it was 1.09 µM (active); with DU-145, 10.2 µM (inactive); in the experiment on MOLT-4, 1.87 µM (inactive). The GI50 was 1.66 µM (inactive) with COLO 205; 0.378 µM (active) with LOX IMVI; 2.18 µM (inactive) in the experiment with SW-620; 7.5 µM (inactive) in the experiment on NCI-H460; 6.82 µM (inactive) in the experiment on U-251; 0.643 µM (active) in the experiment with NCI-H522. Also, the GI50 was 4.74 µM (inactive) in the experiment on OVCAR-8; 2.31 µM (inactive) in the experiment with M14; 9.2 µM (inactive) in the experiment on KM12; 14.1 µM (inactive) in the experiment with SN12C; 14.3 µM (inactive) with SK-MEL-28; 4.5 µM (inactive) in the experiment with SF-268. In addition, in the experiment with HCT-116, the GI50 was 1.87 µM (inactive).

On to `N#CC(Nc1ccccc1)c1ccc(C(C#N)Nc2ccccc2)cc1` (centres undefined), for which the GI50 in the experiment with IGROV-1 was 34.6 µM (inactive); in the experiment on NCI/ADR-RES, 46.7 µM (inactive); in the experiment on TK-10, 28.4 µM (inactive); in the experiment with DU-145 it was 44.1 µM (inactive); in the experiment on MOLT-4, 32.2 µM (inactive); with COLO 205, 27.1 µM (inactive). In addition, the GI50 was 1.17 µM (inactive) in the experiment on LOX IMVI; 20.2 µM (inactive) in the experiment with SW-620; 44.6 µM (inactive) with NCI-H460; 25.4 µM (inactive) in the experiment with U-251; > 100 µM (inactive) in the experiment with NCI-H522; > 100 µM (inactive) with OVCAR-4. The GI50 was > 100 µM (inactive) in the experiment on OVCAR-8; 13.7 µM (inactive) in the experiment with M14; > 100 µM (inactive) with KM12; 46.8 µM (inactive) in the experiment on SN12C; 41.2 µM (inactive) in the experiment with SK-MEL-28; > 100 µM (inactive) with SF-268. The GI50 in the experiment on HCT-116 was 16.7 µM (inactive).

As for `O=C(Oc1ccc(C(c2c(O)c3ccccc3oc2=O)c2c(O)c3ccccc3oc2=O)cc1)c1ccc(C(=O)c2ccccc2)cc1`, the GI50 is 21.4 µM (inactive) in the experiment with IGROV-1; 22.6 µM (inactive) in the experiment on RPMI-8226; 17.3 µM (inactive) in the experiment with NCI/ADR-RES; 17.9 µM (inactive) in the experiment on TK-10; 29.1 µM (inactive) with DU-145; 20.7 µM (inactive) with MOLT-4. Besides, the GI50 is 29.2 µM (inactive) with COLO 205; 21.9 µM (inactive) in the experiment with LOX IMVI; 32.7 µM (inactive) with SW-620; 22.1 µM (inactive) in the experiment on NCI-H460; 23.6 µM (inactive) in the experiment on U-251; 15.4 µM (inactive) in the experiment with NCI-H522. Also, the GI50 in the experiment on OVCAR-4 was 38.4 µM (inactive); with OVCAR-8, 16.6 µM (inactive); with KM12, 17.1 µM (inactive); with SN12C it was 43 µM (inactive); in the experiment on SK-MEL-28 it was 13.6 µM (inactive); with SF-268 it was 25.6 µM (inactive). For the same molecule, the GI50 in the experiment on HCT-116 is 34.2 µM (inactive).

With `COc1ccc(N2C(=O)c3cc(C)cnc3S2(=O)=O)cc1`, the GI50 in the experiment with IGROV-1, in the experiment with RPMI-8226, in the experiment with NCI/ADR-RES, in the experiment on TK-10, in the experiment on DU-145 and with MOLT-4 was > 100 µM (inactive) each time. Moreover, the GI50 in the experiment with COLO 205, in the experiment on LOX IMVI, in the experiment with SW-620, in the experiment on NCI-H460, in the experiment with U-251 and in the experiment on NCI-H522 was > 100 µM (inactive) each time. In addition, the GI50 in the experiment with OVCAR-4, in the experiment with OVCAR-8, with KM12, in the experiment on SN12C, in the experiment on SK-MEL-28 and with SF-268 was > 100 µM (inactive) each time. The GI50 in the experiment with HCT-116 is > 100 µM (inactive).

Turning to `COC(=O)c1ccccc1C1CN=NC12Cc1c(C)c3c(c(C)c1C2=O)CCC3` (centres undefined), the GI50 in the experiment with IGROV-1 is > 100 µM (inactive); with NCI/ADR-RES it was > 100 µM (inactive); with TK-10, 2.48 µM (inactive); in the experiment with DU-145 it was > 100 µM (inactive); with MOLT-4 it was > 100 µM (inactive); in the experiment on COLO 205, > 100 µM (inactive). Further, the GI50 was > 100 µM (inactive) in the experiment on LOX IMVI; > 100 µM (inactive) in the experiment on SW-620; > 100 µM (inactive) in the experiment with NCI-H460; > 100 µM (inactive) in the experiment on U-251; 33.7 µM (inactive) in the experiment on NCI-H522; > 100 µM (inactive) with OVCAR-4. For the same molecule, the GI50 in the experiment with OVCAR-8, in the experiment with M14, with KM12, in the experiment with SN12C, with SK-MEL-28 and in the experiment with SF-268 was > 100 µM (inactive) each time. Besides, the GI50 in the experiment with HCT-116 is 37.6 µM (inactive).

Consider `CC1SC2(CCCCC2)N(NC(=O)CSc2nc3ccc(Cl)cc3c(=O)n2-c2ccccc2)C1=O` (centres undefined), for which the GI50 was 12 µM (inactive) in the experiment with IGROV-1; 22.1 µM (inactive) in the experiment with NCI/ADR-RES; 47.1 µM (inactive) with TK-10; 27 µM (inactive) in the experiment on DU-145; 7.53 µM (inactive) in the experiment with MOLT-4; 13.8 µM (inactive) in the experiment with COLO 205. Also, the GI50 in the experiment on LOX IMVI was 19.5 µM (inactive); with SW-620, 27.9 µM (inactive); in the experiment with NCI-H460, 16.8 µM (inactive); in the experiment with U-251, 17.5 µM (inactive); in the experiment on NCI-H522 it was 18.8 µM (inactive); in the experiment with OVCAR-4, 30.4 µM (inactive). Besides, the GI50 in the experiment on OVCAR-8 is 26.1 µM (inactive); in the experiment with M14, 20 µM (inactive); in the experiment with KM12, 30.1 µM (inactive); in the experiment on SN12C, 17.5 µM (inactive); in the experiment on SK-MEL-28, 32.6 µM (inactive); in the experiment on SF-268 it was 25.8 µM (inactive). In addition, the GI50 with HCT-116 is 14 µM (inactive).

For the molecule `NC(=S)N/N=c1\cc(C(=O)Nc2ccc([N+](=O)[O-])cc2[N+](=O)[O-])oc2ccccc12`, the GI50 in the experiment on IGROV-1, in the experiment on NCI/ADR-RES, with TK-10, in the experiment with DU-145, in the experiment on MOLT-4 and in the experiment with COLO 205 was > 100 µM (inactive) in each case. Besides, the GI50 in the experiment on LOX IMVI, with SW-620, in the experiment on NCI-H460, in the experiment on U-251, in the experiment on NCI-H522 and with OVCAR-4 was > 100 µM (inactive) each time. Also, the GI50 in the experiment on OVCAR-8, with M14, in the experiment with KM12, with SN12C, in the experiment with SK-MEL-28 and with SF-268 was > 100 µM (inactive) throughout. In the experiment with HCT-116, the GI50 was > 100 µM (inactive).

Regarding `Nc1nc(Cl)c(/C=N\O)c(NCC2(CO)CC(=O)C2)n1`, the GI50 is 23.2 µM (inactive) in the experiment on IGROV-1; 3.33 µM (inactive) in the experiment with RPMI-8226; > 100 µM (inactive) in the experiment with NCI/ADR-RES; > 100 µM (inactive) with TK-10; 77.4 µM (inactive) with DU-145; 31.8 µM (inactive) in the experiment on MOLT-4. Besides, the GI50 in the experiment with COLO 205 was > 100 µM (inactive); with LOX IMVI it was 45.8 µM (inactive); in the experiment with SW-620, 89.1 µM (inactive); in the experiment on NCI-H460 it was 67.3 µM (inactive); in the experiment on U-251 it was > 100 µM (inactive); with NCI-H522, 68.7 µM (inactive). Moreover, the GI50 in the experiment on OVCAR-4 was 84.3 µM (inactive); in the experiment on OVCAR-8 it was > 100 µM (inactive); with KM12 it was 24.5 µM (inactive); with SN12C, > 100 µM (inactive); in the experiment on SK-MEL-28, > 100 µM (inactive); in the experiment with SF-268, > 100 µM (inactive). In addition, the GI50 in the experiment with HCT-116 is 88.7 µM (inactive).

Take `CN(C)c1ccc(C(c2ccc(Cl)cc2)c2ccc(N(C)C)cc2)cc1`: the GI50 was > 100 µM (inactive) with IGROV-1; 30.1 µM (inactive) in the experiment with RPMI-8226; > 100 µM (inactive) in the experiment with NCI/ADR-RES; > 100 µM (inactive) in the experiment with TK-10; > 100 µM (inactive) in the experiment with DU-145; > 100 µM (inactive) in the experiment on MOLT-4. Further, the GI50 in the experiment on COLO 205 is 34.7 µM (inactive); in the experiment with LOX IMVI it was > 100 µM (inactive); in the experiment with SW-620 it was > 100 µM (inactive); with NCI-H460 it was > 100 µM (inactive); in the experiment with U-251, > 100 µM (inactive); with NCI-H522, 28.5 µM (inactive). The GI50 in the experiment with OVCAR-8 was 99.1 µM (inactive); in the experiment on M14, > 100 µM (inactive); in the experiment on KM12, > 100 µM (inactive); with SN12C it was > 100 µM (inactive); in the experiment on SK-MEL-28, > 100 µM (inactive); in the experiment on SF-268, > 100 µM (inactive). Also, the GI50 in the experiment on HCT-116 was > 100 µM (inactive).
